According to ChEMBL document CHEMBL3259720, “Design of novel multiple-acting ligands towards SERT and 5-HT2C receptors” (Bioorg Med Chem Lett, 2014):

Assays:
[1] = tested on: Liver microsome; assay: Intrinsic clearance in human liver microsomes measured per gram of tissue at 2.5 uM after 20 mins; assay type: ADME
[2] = Apparent permeability from apical to basolateral side in vinblastine-treated human Caco2 cells at 3 to 50 uM; assay type: ADME, cell-based; conditions: Caco-2
[3] = in vitro; conditions: human, Caco-2
Description: Efflux ratio of apparent permeability from basolateral to apical over apical to basolateral side in vinblastine-treated human Caco2 cells at 3 to 50 uM

[4] = biological target: Sodium-dependent serotonin transporter (Rattus norvegicus, UniProt P31652); assay: biochemical
Chain of Sodium-dependent serotonin transporter (P31652 whole entry): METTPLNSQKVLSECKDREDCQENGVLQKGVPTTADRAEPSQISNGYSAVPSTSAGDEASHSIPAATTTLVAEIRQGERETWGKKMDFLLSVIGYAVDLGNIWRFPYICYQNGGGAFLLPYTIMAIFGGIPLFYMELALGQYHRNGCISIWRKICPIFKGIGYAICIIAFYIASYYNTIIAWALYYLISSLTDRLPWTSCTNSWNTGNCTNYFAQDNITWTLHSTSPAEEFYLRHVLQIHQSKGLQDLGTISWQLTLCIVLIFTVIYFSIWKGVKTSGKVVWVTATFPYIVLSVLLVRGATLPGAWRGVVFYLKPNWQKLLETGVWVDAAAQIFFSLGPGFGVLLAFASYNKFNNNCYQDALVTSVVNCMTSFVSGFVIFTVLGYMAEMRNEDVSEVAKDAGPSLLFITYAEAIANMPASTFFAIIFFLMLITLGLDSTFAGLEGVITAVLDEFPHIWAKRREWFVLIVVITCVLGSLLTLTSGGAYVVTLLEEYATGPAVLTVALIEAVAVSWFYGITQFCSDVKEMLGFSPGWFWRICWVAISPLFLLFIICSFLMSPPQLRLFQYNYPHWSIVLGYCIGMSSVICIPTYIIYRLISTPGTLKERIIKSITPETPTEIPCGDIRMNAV
Description: Displacement of [3H]citalopram from SERT in Sprague-Dawley rat whole brain membranes after 1 hr by liquid scintillation spectrophotometric analysis

[5] = biological target: T1, 5-hydroxytryptamine receptor 2C (Rattus norvegicus, UniProt P08909); assay: biochemical
T1 sequence (P08909 whole entry): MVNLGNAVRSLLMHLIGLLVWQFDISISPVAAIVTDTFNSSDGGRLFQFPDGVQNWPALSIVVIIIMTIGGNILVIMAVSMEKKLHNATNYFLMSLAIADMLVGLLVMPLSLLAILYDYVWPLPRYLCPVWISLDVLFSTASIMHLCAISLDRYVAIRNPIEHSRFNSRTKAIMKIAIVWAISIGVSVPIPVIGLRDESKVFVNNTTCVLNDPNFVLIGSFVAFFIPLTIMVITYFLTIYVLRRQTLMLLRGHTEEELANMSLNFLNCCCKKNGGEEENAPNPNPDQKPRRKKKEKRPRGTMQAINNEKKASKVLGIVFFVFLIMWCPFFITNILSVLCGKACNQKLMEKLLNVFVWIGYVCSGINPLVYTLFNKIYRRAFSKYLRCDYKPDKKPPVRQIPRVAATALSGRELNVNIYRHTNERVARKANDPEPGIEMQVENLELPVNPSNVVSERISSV
Description: Displacement of [3H]mesulergine from 5-HT2C receptor in Sprague-Dawley rat choroid plexus membranes after 30 mins by liquid scintillation spectrophotometric analysis

[6] = biological target: Sodium-dependent serotonin transporter (Rattus norvegicus) (UniProt P31652); assay: Displacement of [3H]citalopram from SERT in Sprague-Dawley rat whole brain membranes at 300 nM after 1 hr by liquid scintillation spectrophotometric analysis relative to control; assay type: tissue-based; conditions: Membrane
Chain of Sodium-dependent serotonin transporter (Rattus norvegicus) (P31652 whole entry): as the sequence (P31652 whole entry) above

[7] = biological target: T2, 5-hydroxytryptamine receptor 2C (Rattus norvegicus) (UniProt P08909); assay: Displacement of [3H]mesulergine from 5-HT2C receptor in Sprague-Dawley rat choroid plexus membranes at 1000 nM after 30 mins by liquid scintillation spectrophotometric analysis relative to control; conditions: Membrane
T2 sequence (whole entry): T1 sequence (P08909 whole entry)

[8] = tested on: Liver; assay: Intrinsic clearance in mouse liver microsomes measured per gram of tissue at 2.5 uM after 20 mins; assay type: ADME

Structure (SMILES) | Ki [4] [nM] | Ki [5] [nM] | other results
CN(C)CCC(Oc1ccc(NC(=O)Nc2ccc3ccn(C)c3c2)cn1)c1ccccc1 (centres undefined) |  |  | inhibition [6]: 1%; inhibition [7]: 15%
CN(C)CCC(Oc1cccc(NC(=O)Nc2ccc3c(ccn3C)c2)c1)c1ccccc1 (centres undefined) | 9.4 | 652 | 
CN(C)CCC(Oc1ccc(NC(=O)Nc2ccc3ccccc3c2)cn1)c1ccccc1 (centres undefined) |  |  | inhibition [6]: 3%; inhibition [7]: 43%
CN(C)CCC(Oc1ccc(NC(=O)N(C)c2ccc(Cl)c(Cl)c2)cc1)c1ccccc1 (centres undefined) | 89.6 | 78.9 | efflux ratio at 50 µM [3]: 1.6
COc1ccc(C(=O)Nc2ccc(OC(CCN(C)C)c3ccccc3)cc2)cc1Cl (centres undefined) | 15.9 | 152 | 
CN(C)CCC(Oc1ccc(NC(=O)Nc2ccc3c(ccn3C)c2)cn1)c1ccccc1 (centres undefined) |  |  | inhibition [6]: -5%; inhibition [7]: 7%
CN(C)CCC(Oc1ccc(NC(=O)c2ccc(Cl)c(Cl)c2)cc1)c1ccccc1 (centres undefined) | 65.3 | 57.1 | CLH [1]: 0.65 mL/min; Papp A→B at 50 µM [2]: 11.3 ×10⁻⁶ cm/s; efflux ratio at 50 µM [3]: 1.1
COc1ccc(C(=O)Nc2ccc(OC(CCN(C)C)c3ccccc3)cc2)cc1C(F)(F)F (centres undefined) | 22.3 | 90.6 | 
CN(C)CCC(Oc1ccc(NC(=O)Nc2ccc3nccn3c2)cc1)c1ccccc1 (centres undefined) | 4 |  | inhibition [7]: 53%
CN(C)CCC(Oc1cccc(NC(=O)Nc2ccc3ccccc3c2)c1)c1ccccc1 (centres undefined) | 28.2 | 87.6 | 
COc1ccc(NC(=O)Nc2ccc(Cl)c(Cl)c2)cc1OC(CCN(C)C)c1ccccc1 (centres undefined) |  | 197 | inhibition [6]: -9%
Cn1ccc2cc(NC(=O)Nc3cccnc3)ccc21 | > 10000 | 124 | 

Continued by falling Ki [5], values first:

Ki [4] [nM] | Ki [5] [nM] | Structure (SMILES) | other results
34.6 | 45.3 | Cc1ccc(C(=O)Nc2ccc(OC(CCN(C)C)c3ccccc3)cc2)cc1Cl (centres undefined) | CLH [1]: 0.59 mL/min; Papp A→B at 50 µM [2]: 19.9 ×10⁻⁶ cm/s; efflux ratio at 50 µM [3]: 0.7
31 | 16.3 | COc1cc(NC(=O)Nc2ccc(OC(CCN(C)C)c3ccccc3)cc2)ccc1Cl (centres undefined) | 
9 | 15.9 | CN(C)CCC(Oc1ccc(NC(=O)Nc2ccc3c(ccn3C)c2)cc1)c1ccccc1 (centres undefined) | Papp A→B at 50 µM [2]: 5.8 ×10⁻⁶ cm/s; efflux ratio at 50 µM [3]: 5.3
41.1 | 11.2 | COc1ccc(NC(=O)Nc2ccc(OC(CCN(C)C)c3ccccc3)cc2)cc1Cl (centres undefined) | CLH [1]: 0.68 mL/min; Papp A→B at 50 µM [2]: 7.5 ×10⁻⁶ cm/s; efflux ratio at 50 µM [3]: 2.2
19.3 | 10.9 | CN(C)CCC(Oc1ccc(NC(=O)Nc2ccc3ccn(C)c3c2)cc1)c1ccccc1 (centres undefined) | 
37.9 | 10.7 | CCn1ccc2cc(NC(=O)Nc3ccc(OC(CCN(C)C)c4ccccc4)cc3)ccc21 (centres undefined) | 
102 | 10.2 | CN(C)CCC(Oc1ccc(N2CCN(c3ccc(Cl)c(Cl)c3)C2=O)cc1)c1ccccc1 (centres undefined) | 
> 10000 | 6.2 | O=C(Nc1cccnc1)Nc1ccc2ccccc2c1 | 
 | 3.4 | CSc1ccc(NC(=O)Nc2ccc(OC(CCN(C)C)c3ccccc3)cc2)cc1C(F)(F)F (centres undefined) | inhibition [6]: 31%
96.4 | 3.3 | COc1ccc(NC(=O)Nc2ccc(OC(CCN(C)C)c3ccccc3)cc2)cc1C(F)(F)F (centres undefined) | 
135 | 2.9 | CN(C)CCC(Oc1ccc(NC(=O)Nc2ccc(Cl)c(Cl)c2)cc1)c1ccccc1 (centres undefined) | 
 | 2.8 | COc1cc(NC(=O)Nc2ccc(Cl)c(Cl)c2)ccc1OC(CCN(C)C)c1ccccc1 (centres undefined) | inhibition [6]: 38%
121 | 2.4 | Cc1ccc(NC(=O)Nc2ccc(OC(CCN(C)C)c3ccccc3)cc2)cc1I (centres undefined) | 
62 | 1.7 | CN(C)CCC(Oc1ccc(NC(=O)Nc2ccc3ccccc3c2)cc1)c1ccccc1 (centres undefined) | CLH [8]: 0.03 mL/min
61.4 | 0.6 | Cc1ccc(NC(=O)Nc2ccc(OC(CCN(C)C)c3ccccc3)cc2)cc1Cl (centres undefined) | CLH [1]: 0.06 mL/min; CLH [8]: 0.9 mL/min
